Calls of active or inactive are those of the source. No rule for the calls is given here. Bounds are passed on as bounds.

Dual specificity protein phosphatase 6 (Rattus norvegicus), sequence (Q64346 whole entry, looked up): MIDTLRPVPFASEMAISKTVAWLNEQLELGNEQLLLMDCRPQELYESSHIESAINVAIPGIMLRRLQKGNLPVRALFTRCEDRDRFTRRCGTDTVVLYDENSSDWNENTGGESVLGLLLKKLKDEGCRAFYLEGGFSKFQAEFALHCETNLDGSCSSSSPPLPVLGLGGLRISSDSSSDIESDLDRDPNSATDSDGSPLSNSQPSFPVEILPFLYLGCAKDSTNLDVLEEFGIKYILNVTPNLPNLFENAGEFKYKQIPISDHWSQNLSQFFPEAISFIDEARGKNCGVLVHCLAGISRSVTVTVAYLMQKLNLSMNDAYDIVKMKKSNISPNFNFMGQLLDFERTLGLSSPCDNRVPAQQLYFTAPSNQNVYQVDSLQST

The test has as its target Dual specificity protein phosphatase 6 (Rattus norvegicus) (UniProt Q64346). The test can be described thus: rat DUSP6 enzyme activity inhibition – biochemical, in vitro, hit/probe assessment, dose response (AID 553). As to conditions: recombinant MKP-3 phosphatase, fluorescence intensity.
As usually defined, the IC50 is the concentration needed to halve the response being measured. Regarding `O=C1C(C2=C(O)c3ccccc3C2=O)=Nc2ccccc21`, the IC50 is 18.3 µM.
With `CCSCCOC(=O)C1=C(C)NC2=C(C(=O)CCC2)C1c1coc2ccccc2c1=O` (configuration not stated) the figure was > 50 µM (inactive).
With `N#C/C(=C(/O)CSc1nnc(Cc2cccs2)n1C1CCCCC1)c1nc2ccccc2[nH]1` the figure was > 50 µM (inactive); with `O=C1c2cccnc2C(Nc2ccc(S(=O)(=O)N3CCCCCC3)cc2)N1Cc1ccccc1` (configuration not stated), > 50 µM (inactive).
With `COC(=O)C1=C(C)NC2=C(C(=O)c3ccccc32)C1c1ccc(-c2ccc(C(=O)O)cc2)o1` (configuration not stated) the figure was > 50 µM (inactive); with `CCOC(=O)c1ccc(NC2c3ncccc3C(=O)N2Cc2ccc(F)cc2)cc1` (configuration not stated), > 50 µM (inactive).
As for `Oc1ccc2ccccc2c1C=NC12CN3CCN(CN(C3)C1)C2`, the IC50 is > 50 µM (inactive).

The values above are taken from PubChem BioAssay AID553 (University of Pittsburgh Molecular Library Screening Center, 2006).
